Assay results published in patent US9393271B2, “GHRH agonists for islet cell transplantation and function and the treatment of diabetes” (UNIVERSITY OF MIAMI, priority 2012, dated 2016).
Non-standard residues stand in square brackets, D forms with d. Residues, ends and D or L forms follow the SMILES beside them. *: point of attachment. Desaminotyrosyl = O=C(CCc1ccc(O)cc1)*; NMeY = CN[C@@H](Cc1ccc(O)cc1)C(=O)O; Agmatine = N=C(N)NCCCCN*; NMeA = CN[C@@H](C)C(=O)O; Nle = CCCC[C@H](N)C(=O)O; Orn = NCCC[C@H](N)C(=O)O; Abu = CC[C@H](N)C(=O)O

Target: T1, GHRH receptor (human pituitary membrane homogenates) (Homo sapiens, UniProt Q02643)
T1 sequence (Q02643 23-423): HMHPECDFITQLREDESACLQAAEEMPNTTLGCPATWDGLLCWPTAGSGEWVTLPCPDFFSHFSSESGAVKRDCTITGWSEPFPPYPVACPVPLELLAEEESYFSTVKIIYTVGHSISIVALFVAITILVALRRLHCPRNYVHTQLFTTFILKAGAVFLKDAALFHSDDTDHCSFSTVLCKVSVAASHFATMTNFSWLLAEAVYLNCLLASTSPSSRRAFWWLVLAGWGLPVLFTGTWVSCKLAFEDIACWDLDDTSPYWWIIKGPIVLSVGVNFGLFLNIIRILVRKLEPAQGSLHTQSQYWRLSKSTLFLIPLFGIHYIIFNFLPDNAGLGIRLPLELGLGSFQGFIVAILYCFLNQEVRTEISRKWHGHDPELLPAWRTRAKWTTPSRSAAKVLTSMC
Experiment: GHRH receptor binding, ligand competition with 125I-labeled JV-1-42 (Table 7)
Set-up: Normal human pituitaries were purchased from the National Hormone and Peptide Program; tissue National Hormone and Peptide Program (A. F. Parlow, Harbor-UCLA Medical Center, Torrance, Calif.); host or cells: normal human pituitary, membrane fraction / homogenate
Conditions: JI-38 = 1

Row | Relative affinitiy (Binding potency) vs JI-38 | SMILES
1 | 4.03 | CCCC[C@H](NC(=O)[C@@H](NC(=O)[C@H](CC(=O)O)NC(=O)[C@H](CCC(N)=O)NC(=O)[C@H](CC(C)C)NC(=O)[C@H](CC(C)C)NC(=O)[C@H](CCCN)NC(=O)[C@H](CCCNC(=N)N)NC(=O)[C@H](C)NC(=O)[C@H](CO)NC(=O)[C@H](CC(C)C)NC(=O)[C@H](CCC(N)=O)NC(=O)[C@H](CC)NC(=O)[C@H](CC(C)C)NC(=O)[C@@H](NC(=O)[C@H](CCCN)NC(=O)[C@H](CCCNC(=N)N)NC(=O)[C@H](Cc1ccc(O)cc1)NC(=O)[C@H](CO)NC(=O)[C@H](CCC(N)=O)NC(=O)[C@@H](NC(=O)[C@H](Cc1ccccc1)NC(=O)[C@@H](NC(=O)[C@H](C)NC(=O)[C@H](CC(=O)O)NC(=O)[C@H](C)NC(=O)[C@H](Cc1ccc(O)cc1)NC)[C@@H](C)CC)[C@@H](C)O)C(C)C)[C@@H](C)CC)C(=O)N[C@@H](CO)C(=O)N[C@@H](CCCNC(=N)N)C(=O)NC [Peptide P-27405, [N—Me-Tyr^1, Gln^8, Orn^12, Abu^15, Orn^21, Nle^27]hGHRH(1-29)NH—CH3] (H-[NMeY]ADAIFTQSYR[Orn]VL[Abu]QLSAR[Orn]LLQDI[Nle]SR-NHMe)
2 | 8.37 | CCCC[C@H](NC(=O)[C@@H](NC(=O)[C@H](CC(=O)O)NC(=O)[C@H](CCC(N)=O)NC(=O)[C@H](CC(C)C)NC(=O)[C@H](CC(C)C)NC(=O)[C@H](CCCN)NC(=O)[C@H](CCCNC(=N)N)NC(=O)[C@H](C)NC(=O)[C@H](CO)NC(=O)[C@H](CC(C)C)NC(=O)[C@H](CCC(N)=O)NC(=O)[C@H](CC)NC(=O)[C@H](CC(C)C)NC(=O)[C@@H](NC(=O)[C@H](CCCN)NC(=O)[C@H](CCCNC(=N)N)NC(=O)[C@H](Cc1ccc(O)cc1)NC(=O)[C@H](CO)NC(=O)[C@H](CCC(N)=O)NC(=O)[C@@H](NC(=O)[C@H](Cc1ccccc1)NC(=O)[C@@H](NC(=O)[C@H](C)NC(=O)[C@H](CC(=O)O)NC(=O)[C@@H](C)NC(=O)[C@H](Cc1ccc(O)cc1)NC)[C@@H](C)CC)[C@@H](C)O)C(C)C)[C@@H](C)CC)C(=O)N[C@@H](CC(=O)O)C(=O)N[C@@H](CCCNC(=N)N)C(=O)NCC [Peptide P-28420, [N—Me-Tyr^1, D-Ala^2, Gln^8, Orn^12, Abu^15, Orn^21, Nle^27, Asp^28]hGHRH(1-29)NH—CH2—CH3] (H-[NMeY][dA]DAIFTQSYR[Orn]VL[Abu]QLSAR[Orn]LLQDI[Nle]DR-NHEt)
3 | 2.96 | CCCC[C@H](NC(=O)[C@@H](NC(=O)[C@H](CC(=O)O)NC(=O)[C@H](CCC(N)=O)NC(=O)[C@H](CC(C)C)NC(=O)[C@H](CC(C)C)NC(=O)[C@H](CCCN)NC(=O)[C@H](CCCNC(=N)N)NC(=O)[C@H](C)NC(=O)[C@H](CO)NC(=O)[C@H](CC(C)C)NC(=O)[C@H](CCC(N)=O)NC(=O)[C@H](CC)NC(=O)[C@H](CC(C)C)NC(=O)[C@@H](NC(=O)[C@H](CCCN)NC(=O)[C@H](CCCNC(=N)N)NC(=O)[C@H](Cc1ccc(O)cc1)NC(=O)[C@H](CO)NC(=O)[C@H](CC(N)=O)NC(=O)[C@@H](NC(=O)[C@H](Cc1ccccc1)NC(=O)[C@@H](NC(=O)[C@H](C)NC(=O)[C@H](CC(=O)O)NC(=O)[C@@H](C)NC(=O)[C@H](Cc1ccc(O)cc1)NC)[C@@H](C)CC)[C@@H](C)O)C(C)C)[C@@H](C)CC)C(=O)N[C@@H](CC(=O)O)C(=O)N[C@@H](CCCNC(=N)N)C(=O)NCC [Peptide P-28421, [N—Me-Tyr^1, D-Ala^2, Orn^12, Abu^15, Orn^21, Nle^27, Asp^28]hGHRH(1-29)NH—CH2—CH3] (H-[NMeY][dA]DAIFTNSYR[Orn]VL[Abu]QLSAR[Orn]LLQDI[Nle]DR-NHEt)
4 | 5.24 | CCCC[C@H](NC(=O)[C@@H](NC(=O)[C@H](CC(=O)O)NC(=O)[C@H](CCC(N)=O)NC(=O)[C@H](CC(C)C)NC(=O)[C@H](CC(C)C)NC(=O)[C@H](CCCN)NC(=O)[C@H](CCCNC(=N)N)NC(=O)[C@H](C)NC(=O)[C@H](CO)NC(=O)[C@H](CC(C)C)NC(=O)[C@H](CCC(N)=O)NC(=O)[C@H](CC)NC(=O)[C@H](CC(C)C)NC(=O)[C@@H](NC(=O)[C@H](CCCN)NC(=O)[C@H](CCCNC(=N)N)NC(=O)[C@H](Cc1ccc(O)cc1)NC(=O)[C@H](CO)NC(=O)[C@@H](NC(=O)[C@@H](NC(=O)[C@H](Cc1ccccc1)NC(=O)[C@@H](NC(=O)[C@H](C)NC(=O)[C@H](CC(=O)O)NC(=O)[C@@H](C)NC(=O)[C@H](Cc1ccc(O)cc1)NC)[C@@H](C)CC)[C@@H](C)O)[C@@H](C)O)C(C)C)[C@@H](C)CC)C(=O)N[C@@H](CC(=O)O)C(=O)N[C@@H](CCCNC(=N)N)C(=O)NC [Peptide P-27410, [N—Me-Tyr^1, D-Ala^2, Thr^8, Orn^12, Abu^15, Orn^21, Nle^27, Asp^28]hGHRH(1-29)NH—CH3] (H-[NMeY][dA]DAIFTTSYR[Orn]VL[Abu]QLSAR[Orn]LLQDI[Nle]DR-NHMe)

Row | SMILES | Relative affinitiy (Binding potency) vs JI-38
5 | CCCC[C@H](NC(=O)[C@@H](NC(=O)[C@H](CC(=O)O)NC(=O)[C@H](CCC(N)=O)NC(=O)[C@H](CC(C)C)NC(=O)[C@H](CC(C)C)NC(=O)[C@H](CCCN)NC(=O)[C@H](CCCNC(=N)N)NC(=O)[C@H](C)NC(=O)[C@H](CO)NC(=O)[C@H](CC(C)C)NC(=O)[C@H](CCC(N)=O)NC(=O)[C@H](CC)NC(=O)[C@H](CC(C)C)NC(=O)[C@@H](NC(=O)[C@H](CCCN)NC(=O)[C@H](CCCNC(=N)N)NC(=O)[C@H](Cc1ccc(O)cc1)NC(=O)[C@H](CO)NC(=O)[C@H](CCC(N)=O)NC(=O)[C@@H](NC(=O)[C@H](Cc1ccccc1)NC(=O)[C@@H](NC(=O)[C@H](C)NC(=O)[C@H](CC(=O)O)NC(=O)[C@@H](C)NC(=O)[C@H](Cc1ccc(O)cc1)NC)[C@@H](C)CC)[C@@H](C)O)C(C)C)[C@@H](C)CC)C(=O)N[C@@H](CC(=O)O)C(=O)NCCCCNC(=N)N [Peptide P-20361, [N—Me-Tyr^1, D-Ala^2, Gln^8, Orn^12, Abu^15, Orn^21, Nle^27, Asp^28, Agm^29] hGHRH(1-29)] (H-[NMeY][dA]DAIFTQSYR[Orn]VL[Abu]QLSAR[Orn]LLQDI[Nle]D-Agmatine) | 5.30
6 | CCCC[C@H](NC(=O)[C@@H](NC(=O)[C@H](CC(=O)O)NC(=O)[C@H](CCC(N)=O)NC(=O)[C@H](CC(C)C)NC(=O)[C@H](CC(C)C)NC(=O)[C@H](CCCN)NC(=O)[C@H](CCCNC(=N)N)NC(=O)[C@H](C)NC(=O)[C@H](CO)NC(=O)[C@H](CC(C)C)NC(=O)[C@H](CCC(N)=O)NC(=O)[C@H](CC)NC(=O)[C@H](CC(C)C)NC(=O)[C@@H](NC(=O)[C@H](CCCN)NC(=O)[C@H](CCCNC(=N)N)NC(=O)[C@H](Cc1ccc(O)cc1)NC(=O)[C@H](CO)NC(=O)[C@H](C)N(C)C(=O)[C@@H](NC(=O)[C@H](Cc1ccccc1)NC(=O)[C@@H](NC(=O)[C@H](C)NC(=O)[C@H](CC(=O)O)NC(=O)[C@@H](C)NC(=O)CCc1ccc(O)cc1)[C@@H](C)CC)[C@@H](C)O)C(C)C)[C@@H](C)CC)C(=O)N[C@@H](CC(=O)O)C(=O)NCCCCNC(=N)N [Peptide P-20357, [Dat^1, D-Ala^2, N—Me-Ala^8, Orn^12, Abu^15, Orn^21, Nle^27, Asp^28, Agm^29]hGHRH(1-29)] (Desaminotyrosyl-[dA]DAIFT[NMeA]SYR[Orn]VL[Abu]QLSAR[Orn]LLQDI[Nle]D-Agmatine) | 5.06
